This experiment has as its system COVID-19. In words: Retrospective analysis of international COVID-19 cohort (TriNetX COVID-19 Research Network), Dupilumab. It is filed as in vivo, human. As to conditions: for Risk Difference (95% CI), Deceased / Risk Difference (95% CI), Ventilated: with vs without Dupilumab.
Where [1] appears, read: Diagnoses Matching, 65 patients with Dupilumab.
[2] abbreviates: Dupilumab prescribed prior to COVID-19 diagnosis.
[3] abbreviates: Full Cohort, 81 patients with Dupilumab.

Consider one substance from patent US20230227546A1, “TYPE 2 CYTOKINES AS PREDICTORS OF DISEASE SEVERITY AND/OR AS T[…] FOR COVID-19” (priority 2020, published 2023).

Take “Dupilumab: anti-human IL4Rα monoclonal antibody that blocks IL-13 and IL-4 signaling; sold as DUPIXENT”: the “Deceased (number of patients) With Dupilumab” value is 0 (1:1 Propensity Score Matching, 81 patients); 0 under setting [1]; 0 under setting [3]. The “Risk Difference (95% CI), Deceased” value is reported as 12.3% (5.2-19.5) (1:1 Propensity Score Matching), 1.83% (1.69-1.97) (Diagnoses Matching) and 1.98% (1.94-2.03) (Full Cohort). For the same substance, the “Serum C-Reactive Protein (CRP)” value (COVID-19 patients With Dupilumab) came to 25.3 mg/L. In addition, the “Ventilated (number of patients) With Dupilumab” value under setting [1] is given as 0 and the “Ventilated (number of patients) With Dupilumab” value under setting [3] is recorded as 0. Besides, the “Risk Difference (95% CI), Ventilated” value (Diagnoses Matching) was 0.67% (0.58-0.75) and the “Risk Difference (95% CI), Ventilated” value (Full Cohort) is listed as 0.37% (0.35-0.39). Moreover, under setting [2], the “risk of death in COVID-19” value was “lower risk”. Also, under setting [2], the “risk of ventilation in COVID-19” value was “lower risk”. Also, the CRP levels result (Dupilumab-prescribed patients with COVID-19) is recorded as “reduced”. For the same substance, the “CRP Sub-cohort Difference” value (With vs Without Dupilumab) was 12.
